Assay results as given in patent US7875601B2, “Cancer treatment with epothilones” (Novartis AG, priority 1998, dated 2011).

Test system: human PC-3M prostate carcinoma cells
Test: Antitumor effect against orthotopically injected PC-3M cells
Format: in vivo, male BALB/c nude mice
Conditions: for Tumor Response (T/C %) Lymph Nodes / Tumor Response (T/C %) Prostate: day 42
Experimental: A human androgen-independent prostate cancer cell line is used to establish subcutaneous and orthotopic models in mice. The human metastatic prostate carcinoma PC-3M is obtained from Dr. I. J. Fidler (MD Anderson Cancer Center, Houston, Tex., USA) and is cultured in Ham's F12K media supplemented with 7% v/v FBS. The PC-3M cell line is the result of isolation from liver metastasis produced in nude mice subsequent to intrasplenic injection of PC-3 cells [ATCC CRL 1435; American Type Culture Collection (Rockville, Md., USA)], and they can grow in Eagle's MEM supplemented with 10% fetal bovine serum, sodium pyruvate, non-essential amino acids, L-glutamine, a two-fold vitamin solution (Gibco Laboratories, Long Island, N.Y.) and penicillin-streptomycin (Flow Laboratories, Rockville, Md.). The PC-3M cell line is hormone-insensitive (that is, it grows in the absence of androgens). The PC-3 cell line is androgen receptor negative, as is presumably the derived PC-3M cell line. […] The cells are near-triploid with a modal number of 62 chromosomes. No normal Y chromosomes can be detected by Q-band analysis.
Human prostate carcinoma PC-3M cells (1×10^6 cells per 20 μl phosphate buffered saline) are injected into the left […] of the prostate of each animal (n=6-9/group) according the method previously described (see Stephenson et al., J. Natl. Cancer Inst. 84, 951-7 (1992)). Treatment is started on day 14 after cell injection. At this time point a mean tumor weight of ˜20 mg is established. Epothilone B is administered either once or once weekly. Mice are sacrificed 42 days post tumor inoculation, and the prostates are carefully removed, dissected free of adhering tissue and weighed. […] Mesenteric lymph nodes are examined for the presence of metastases, dissected free of adhering tissue and weighed.
Tumor weight and body weights are monitored once or twice weekly. All treatments are administered intravenously (i.v.) and are initiated 14 days post cell injection. Treatment with epothilone B varies the dose and frequency of administration. Antitumor activity is expressed as T/C % (mean tumor weight of treated animals divided by the mean tumor weight of control animals multiplied by 100).

In the case of `C/C(=C\c1csc(C)n1)[C@@H]1C[C@@H]2O[C@]2(C)CCC[C@H](C)[C@H](O)[C@@H](C)C(=O)C(C)(C)[C@@H](O)CC(=O)O1` [epothilone B], the “% Body Weight Change” value (4 mg/kg, i.v. once per week) is reported as −1 ± 5%, the “Survival (No. alive/total)” value (4 mg/kg, i.v. once per week) is reported as 8/9 and the “Δ Body Weight” value (4 mg/kg, i.v. once per week) is reported as -1.2 ± 2.3 g. For the same compound, the “Tumor Response (T/C %) Lymph Nodes” value (4 mg/kg, i.v. once per week) was 4%, the “Tumor Response (T/C %) Prostate” value (4 mg/kg, i.v. once per week) was 2% and the “% Body Weight Change” value (5 mg/kg, i.v. once per week) was −25 ± 5%. The “Survival (No. alive/total)” value (5 mg/kg, i.v. once per week) was 7/9, the “Δ Body Weight” value (5 mg/kg, i.v. once per week) was -6.8 ± 1.5 g and the “Tumor Response (T/C %) Lymph Nodes” value (5 mg/kg, i.v. once per week) was 4%. For the same compound, the “Tumor Response (T/C %) Prostate” value (5 mg/kg, i.v. once per week) was 1%, the “% Body Weight Change” value (6 mg/kg, i.v. once) was −6 ± 12% and the “Survival (No. alive/total)” value (6 mg/kg, i.v. once) was 9/9. The “Δ Body Weight” value (6 mg/kg, i.v. once) was -1.4 ± 4.1 g, the “Tumor Response (T/C %) Lymph Nodes” value (6 mg/kg, i.v. once) was 4% and the “Tumor Response (T/C %) Prostate” value (6 mg/kg, i.v. once) was 5%. The “% Body Weight Change” value (8 mg/kg, i.v. once) was −13 ± 15%, the “Survival (No. alive/total)” value (8 mg/kg, i.v. once) was 7/9 and the “Δ Body Weight” value (8 mg/kg, i.v. once) was -5.2 ± 4.3 g. The “Tumor Response (T/C %) Lymph Nodes” value (8 mg/kg, i.v. once) was 4%, the “Tumor Response (T/C %) Prostate” value (8 mg/kg, i.v. once) was 1% and the “animals with detectable metastases” value (in each of the epothilone B treatment groups, all animals in vehicle controls) was “one”.
